System: SA 9218
Assay: MIC by standard agar dilution method
Assay type: cell-based
Conditions: Mueller Hinton agar, 10^4 to 10^5 cells per spot, incubated overnight at 35° C., lowest concentration that inhibits visible growth
Summary of the method: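 Agar dilution: two-fold compound dilutions mixed into molten Mueller Hinton agar, spots of ~10^4–10^5 cells from 0.5 McFarland suspension diluted 1:20 in TSB. Incubated overnight at 35 °C; MIC is lowest concentration inhibiting visible growth.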

MIC, 1 µg/mL:
O=C(Nc1ccc(Br)cc1C(=O)O)c1cccc(CSc2ccccc2)c1 [PHA-501684]
O=C(Nc1ccc(Br)cc1C(=O)O)c1cc(Br)cc(S(=O)(=O)N2CCc3cc(Br)ccc32)c1 [PHA-515585]
O=C(Nc1ccc(Br)cc1C(=O)O)c1cccc(NS(=O)(=O)c2ccc(Cl)c(Cl)c2)c1 [PHA-713410]
O=C(Nc1ccc(Br)cc1C(=O)O)c1ccc(S(=O)(=O)n2ccc3cc(F)c(Cl)cc32)cc1 [PNU-291010]
N#Cc1ccc(NC(=O)c2cccc(S(=O)(=O)N3CCCC3)c2)c(C(=O)O)c1 [PHA-543140]
O=C(Nc1ccc(Br)cc1C(=O)O)c1cccc(S(=O)(=O)N2CCc3ccccc32)c1 [PHA-520938]

MIC, 8 µg/mL:
N#Cc1ccc(C(=O)Nc2ccc(Br)cc2C(=O)O)cc1S(=O)(=O)N1CCc2ccccc21 [PNU-293905]
N#Cc1ccc(NC(=O)c2ccc(N=[N+]=[N-])c(I)c2)c(C(=O)O)c1 [PHA-748361]
N#Cc1ccc(NC(=O)c2cccc(S(=O)(=O)N3CCCCCC3)c2)c(C(=O)O)c1 [PHA-571224]
O=C(Nc1ccc(Br)cc1C(=O)O)c1ccc2c(c1)C(=O)N(CC1CCCO1)C2=O (stereo not shown)
Cl.O=C(Nc1ccc(Br)cc1C(=O)O)c1cccc(SCc2ccncc2)c1 [PHA-502339A]
N#Cc1ccc(NC(=O)c2cc(CCO)cc(S(=O)(=O)N3CCc4ccccc43)c2)c(C(=O)O)c1 [PHA-568425]
COc1ccc(C(=O)Nc2ccc(C#N)cc2C(=O)O)cc1F
Cc1ncsc1CCOc1cccc(C(=O)Nc2ccc(Br)cc2C(=O)O)c1
O=C(Nc1ccc(I)cc1C(=O)O)c1cccc(S(=O)(=O)N2CC=CC2)c1
CC1CCN(S(=O)(=O)c2cccc(C(=O)Nc3ccc(C#N)cc3C(=O)O)c2)CC1 [PHA-571273]
CCCCCOc1cccc(C(=O)Nc2ccc(Br)cc2C(=O)O)c1
Cc1ccc(C(=O)Nc2ccc(Br)cc2C(=O)O)cc1S(=O)(=O)Nc1ccc(Cl)c2ccccc12
O=C(Nc1ccc(Br)cc1C(=O)O)c1cc(Cl)cc(Cl)c1
O=C(Nc1ccc(Cl)cc1C(=O)O)c1cccc(C(=O)c2cccs2)c1 [PHA-656887]

MIC, 0.125 µg/mL:
N#Cc1ccc(NC(=O)c2cccc(S(=O)(=O)n3ccc4cc(Cl)ccc43)c2)c(C(=O)O)c1 [PHA-543681]

MIC, 16 µg/mL:
CCCCN(CCO)S(=O)(=O)c1cccc(C(=O)Nc2ccc(C#N)cc2C(=O)O)c1 [PHA-656859]
CN(c1ccc(Cl)cc1)S(=O)(=O)c1cccc(C(=O)Nc2ccc(C(F)(F)F)cc2C(=O)O)c1 [PHA-500334]
O=C(Nc1ccc(Cl)cc1C(=O)O)c1cccc(C(=NO)C2CCCO2)c1 (stereo not shown)
COCCOc1cccc(C(=O)Nc2ccc(Br)cc2C(=O)O)c1
COc1ccc(C(=O)Nc2ccc(Br)cc2C(=O)O)cc1S(=O)(=O)Nc1ccc(Cl)cc1
O=C(Nc1ccc(Br)cc1C(=O)O)c1cc(S(=O)(=O)N2CCc3ccc(Cl)cc32)c(F)cc1Cl
CCN(CC)c1ccc(C(=O)Nc2ccc(C#N)cc2C(=O)O)cc1

MIC, 32 µg/mL:
COc1ccc(C(=O)Nc2ccc(Br)cc2C(=O)O)cc1S(=O)(=O)N1CCN(c2cccc(C(F)(F)F)c2)CC1
N#Cc1ccc(NC(=O)c2cccc(S(=O)(=O)N3CCC(C#N)(c4ccccc4)CC3)c2)c(C(=O)O)c1 [PHA-571262]
O=C(Nc1ccc(Br)cc1C(=O)O)c1ccc(-c2ccccc2)cc1
O=C(Nc1ccc(Br)cc1C(=O)O)c1cc(S(=O)(=O)Nc2ccc(F)c(Cl)c2)ccc1Br
O=C(Nc1ccc(I)cc1C(=O)O)c1cccc(S(=O)(=O)N2CCN(c3ccccn3)CC2)c1
CC(=O)c1ccc(N2CCN(S(=O)(=O)c3cccc(C(=O)Nc4ccc(C#N)cc4C(=O)O)c3)CC2)cc1 [PHA-571172]
CCCC(CCC)S(=O)(=O)c1ccc(C(=O)Nc2ccc(Cl)cc2C(=O)O)cc1NO.Cl [PNU-283601A]
O=C(Nc1ccc(I)cc1C(=O)O)c1ccc(S(=O)(=O)N2CCSC2)cc1
N#Cc1ccc(NC(=O)c2cccc(O)c2)c(C(=O)O)c1
N#Cc1ccc(NC(=O)c2cccc(Cl)c2)c(C(=O)O)c1 [PHA-571155]
COC(=O)COc1cccc(C(=O)Nc2ccc(Br)cc2C(=O)O)c1
CC(C(O)c1ccccc1)N(C)S(=O)(=O)c1ccc(C(=O)Nc2ccc(C#N)cc2C(=O)O)cc1 (stereo not shown) [PHA-571242]

MIC, 64 µg/mL:
CCC1CCCCN1S(=O)(=O)c1ccc(C(=O)Nc2ccc(C#N)cc2C(=O)O)cc1 (stereo not shown) [PHA-571189]
N#Cc1ccc(NC(=O)c2cccc(F)c2)c(C(=O)O)c1
N#Cc1ccc(NC(=O)c2cccc(S(=O)(=O)N3CCN(c4ccccc4)CC3)c2)c(C(=O)O)c1 [PHA-571208]
O=C(Nc1ccc(Br)cc1C(=O)O)c1ccc(Br)c(S(=O)(=O)NC2Cc3ccccc3C2)c1
CN(C)c1ccc(CNS(=O)(=O)c2cc(C(=O)Nc3ccc(Br)cc3C(=O)O)ccc2Br)cc1
O=C(Nc1ccc(Br)cc1C(=O)O)c1cccc(S(=O)(=O)NCCCn2ccnc2)c1
O=C(Nc1ccc(Br)cc1C(=O)O)c1ccc(OCCc2cccc([N+](=O)[O-])c2)cc1
CCOCC(=NO)c1ccc(C(=O)Nc2ccc(Cl)cc2C(=O)O)cc1
N#Cc1ccc(NC(=O)c2ccc(O)cc2)c(C(=O)O)c1
CCN(CC)c1ccc(NS(=O)(=O)c2cc(C(=O)Nc3ccc(Br)cc3C(=O)O)ccc2Br)cc1
Cc1ccc(F)cc1C(=O)Nc1ccc(Br)cc1C(=O)O

MIC, 0.25 µg/mL:
N#Cc1ccc(NC(=O)c2ccc3c(c2)S(=O)(=O)N(c2ccc(Cl)cc2)CC3)c(C(=O)O)c1 [PHA-562745]

MIC, > 128 µg/mL:
CSc1ccc(Cl)c(C(=O)Nc2ccc(Br)cc2C(=O)O)c1
O=Cc1ccc(C(=O)Nc2ccc(Br)cc2C(=O)O)cc1
CN1CCCC1COc1ccc(C(=O)Nc2ccc(Br)cc2C(=O)O)cc1 (stereo not shown)
N#Cc1ccc(NC(=O)c2ccc(S(=O)(=O)N3CCOCC3)cc2)c(C(=O)O)c1 [PHA-571255]
O=C(Nc1ccc(C(=O)Nc2ccc(Br)cc2C(=O)O)cc1)Nc1cc(Cl)cc(Cl)c1 [PHA-713397]
COCC(=O)Nc1ccc(C(=O)Nc2ccc(Br)cc2C(=O)O)cc1 [PHA-708987]
O=C(Nc1ccc(Br)cc1C(=O)O)c1cccc(NC(=O)c2sc3ccccc3c2Cl)c1 [PHA-713391]
C#CC(CC)Oc1ccc(C(=O)Nc2ccc(Br)cc2C(=O)O)cc1 (stereo not shown)
O=C(Nc1ccc(I)cc1C(=O)O)c1ccc(F)cc1 [PNU-281164]

MIC, 0.5 µg/mL:
O=C(Nc1ccc(-c2ccccc2C(F)(F)F)cc1C(=O)O)c1cccc(S(=O)(=O)N2CCc3cc(Cl)ccc32)c1 [PHA-563279]
Cc1ccc(C(=O)Nc2ccc(Br)cc2C(=O)O)cc1S(=O)(=O)N(C)c1ccc(Cl)cc1 [PNU-291571]
CN(c1ccc(Cl)cc1)S(=O)(=O)c1cc(Br)cc(C(=O)Nc2ccc(Cl)cc2C(=O)O)c1 [PHA-509059]
N#Cc1ccc(NC(=O)c2cccc(S(=O)(=O)n3cnc4ccccc43)c2)c(C(=O)O)c1 [PHA-630330]

MIC, 128 µg/mL:
N#Cc1ccc(C(=O)Nc2ccc(Br)cc2C(=O)O)cc1
O=C(Cc1cccs1)Nc1ccc(C(=O)Nc2ccc(Br)cc2C(=O)O)cc1 [PHA-713386]
O=C(Nc1ccc(Br)cc1C(=O)O)c1ccccc1F
O=C(Nc1ccc(C(=O)Nc2ccc(Br)cc2C(=O)O)cc1)Nc1ccc(F)cc1F [PHA-713394]

MIC, 2 µg/mL:
O=C(Nc1ccc(Br)cc1C(=O)O)c1cc(S(=O)(=O)N2CCc3ccccc32)ccc1Br
O=C(Nc1ccc(Br)cc1C(=O)O)c1cccc(Oc2ccccc2)c1 [PHA-513535]
O=C(Nc1ccc(Br)cc1C(=O)O)c1cccc(C#Cc2ccccc2)c1 [PHA-526578]
CC(C)Oc1cccc(C(=O)Nc2ccc(Br)cc2C(=O)O)c1
O=C(Nc1ccc(Br)cc1C(=O)O)c1ccc2ccccc2c1
COc1ccc2c(ccn2S(=O)(=O)c2ccc(C(=O)Nc3ccc(Br)cc3C(=O)O)cc2)c1 [PNU-291517]
N#Cc1ccc(NC(=O)c2cccc(C(=O)C3CCCC3)c2)c(C(=O)O)c1 [PHA-570042]
O=C(Nc1ccc(-c2ccc(Cl)cc2)cc1C(=O)O)c1cccc(S(=O)(=O)N2CCc3cc(Cl)ccc32)c1 [PHA-563274]
N#Cc1ccc(NC(=O)c2ccc3ccccc3c2)c(C(=O)O)c1
N#Cc1ccc(-c2ccc(NC(=O)c3cccc(S(=O)(=O)N4CCc5cc(Cl)ccc54)c3)c(C(=O)O)c2)cc1 [PHA-563276]

MIC, 4 µg/mL:
CCCCCC(=O)c1ccc(C(=O)Nc2ccc(Cl)cc2C(=O)O)cc1
N#Cc1ccc(NC(=O)c2cccc([S+]([O-])C3CCCC3)c2)c(C(=O)O)c1 (stereo not shown) [PHA-630427]
O=C(Nc1ccc([N+](=O)[O-])cc1C(=O)O)c1cccc(S(=O)(=O)N2CCOCC2)c1 [PHA-571397]
O=C(Nc1ccc(Cl)cc1C(=O)O)c1cccc(C(=O)c2ccc(Cl)cc2)c1
O=C(Nc1ccc(Br)cc1C(=O)O)c1cccc(CCc2ccccc2)c1 [PHA-530989]

SA 9218 MIC, 2 µg/mL:
O=C(Nc1ccc(Cl)cc1C(=O)O)c1cccc(C(=O)c2ccccc2)c1 [PHA-518226]

SA 9218 MIC, 64 µg/mL:
C=CCON=C(c1ccc(C(=O)Nc2ccc(Cl)cc2C(=O)O)cc1)c1ccco1 [drawing 1123]

SA 9218 MIC, 8 µg/mL:
O=C(Nc1ccc(Cl)cc1C(=O)O)c1cccc(C(=NO)c2ccco2)c1 [drawing 1121]

SA 9218 MIC, 32 µg/mL:
CC(C(O)c1ccccc1)N(C)S(=O)(=O)c1cccc(C(=O)Nc2ccc(C#N)cc2C(=O)O)c1 (stereo not shown) [PHA-571272]
